{"source": "patent EP0059817A1", "about": "“Serpentine, alstonine and sempervirine drugs for the specific inhibition of tumurous and cancerous cells” (priority 1981, dated 1982)", "key": {"[1]": {"tested_on": "Cellules primaires de reins de singe", "experiment": "cell culture cytotoxicity, normal cells", "assay_type": "cell-based", "conditions": "200 µg/ml; en culture de 7 jours dès l'ensemencement", "description": "Des cultures de cellules saines (cellules primaires de reins de singe, cellules de lignée \"Vero\" et \"SIRC\") et des cultures de cellules cancéreuses (cellules K.B., cellules Hela, cellules Hep II et cellules L)ont reçu une dose de 200 Mg, soit de serpentine, soit d'alstonine, soit de sempervirine, par ml de culture.\n(§1) L'effet cytotoxique spécifique, vis-à-vis des cellules tumorales utilisées, ne s'est jamais démenti au cours des très nombreuses expériences effectuées. Par contre, pour effectuer les cellules saines il a fallu des quantités d'alcaloides au moins dix fois plus grandes (plus de 2 mg/ml). (Les cultures de cellules in-vitro sans mycoplàsmes ont été effectuées dans les conditions classiques et en l'absence d'antibiotique qui pourraient fausser les résultats).\n(§2) Les cellules cancéreuses et saines utilisées ne contenaient pas de mycoplasmes et le milieu de culture ne contenait pas d'antibiotique, ces derniers pouvant sensibiliser les cellules et par conséquent fausser les résultats."}, "Cellules K.B.": {"tested_on": "Cellules K.B.", "experiment": "cell culture cytotoxicity, cancer cells", "assay_type": "cell-based", "conditions": "200 µg/ml; en culture de 3 jours dès l'ensemencement", "description": "as §1, §2"}, "tumeur MS 301": {"tested_on": "tumeur MS 301", "experiment": "transplantable mammary cancer of the mouse", "assay_type": "in vivo, souris de souche Rh0 III", "conditions": "400 ^gg at the tumour implantation site, twice a day for 15 days from day 3; n=10; p : 0,01", "source_text": "Action sur le cancer mammaire greffable de la souris • - Vingt souris de 18 à 20g, de souche Rh0 III ont été inoculées, par voie sous-cutanée, par 0,8 \" d'un extrait de tumeur MS 301, broyé. Dix souris ont été gardées comme témoins; dix autres vaient, le troisième jour après l'inoculation, 400 ^gg d'alstonine au niveau de l'implantation tumorale, deux fois par jour, pendant quinze- jours. Au seizième jour, les souris étaient anesthésiées et sacrifiées, les tumeurs excisées et pesées. • - La même expérience fut effectuée avec la serpentine au lieu d'alstonine."}, "lymphome YC 8 [2]": {"tested_on": "lymphome YC 8", "experiment": "lymphoma YC 8 of the mouse, alstonine and cyclophosphamide", "assay_type": "in vivo, souris BALB C", "conditions": "for survie (surviving mice/total): i.p., alstonine 400 µg par jour, 8 days from day 3, mixture with 2 mg cyclophosphamide"}, "Ascite d'Ehrlich [3]": {"tested_on": "Ascite d'Ehrlich", "experiment": "Ehrlich ascites tumour in the mouse, serpentine, alstonine, cyclophosphamide", "assay_type": "in vivo, souris blanches Swiss", "conditions": "for definitive arrest of the Ehrlich ascites tumour (in words): each substance alone, treatment from day 4 or 5 for 10 to 15 days; for survie (surviving mice/total): I.P., serpentine 400 µg par jour, cyclophosphamide 2 ma par jour", "source_text": "Activité vis-à-vis des tumeurs \"Ascite d'Ehrlich\" chez la souris - 5 x 10^3 cellules Ascite d'Ehrlich sont inoculées à des souris blanches Swiss de 20-24 g, par voie intrapéritonéale.\nDivers traitements furent appliqués dès le quatrième ou le cinquième jour et pendant dix à quinze jours. […] Un net ralentissement du développement des tumeurs est observé, mais les tumeurs repartent après arrêt du traitement dans le cas du cyclophosphamide seul, le redémarrage peut être plus tardif qu'avec la serpentine ou l'alstonine. Par contre, l'association de serpentine (400 µg par jour) et de cyclophosphamide (2 ma par jour) par voie I.P. permet d'obtenir une survie définitive (survie définitive : survie normale pendant trois mois sans perte de poids) et le pourcentage des survivants varie de 80 à 100% (Tableau IV ci-après). Les souris ainsi guéries augmentent normalement de poids et après quatre à six mois celui-ci est de 24-26 g. Leur aspect est absolument normal et rien ne les distingue de souris saines. (Dans les expériences, seule la survie sans récidive est prise en considération).\nLa figurer, où sont portés en abscisses le nombre de jours de traitement et en ordonnées le poids (en gramme) des souris, montre l'évolution de la tumeur d'Ehrlich chez les souris traitées, soit par la serpentine seule (courbe 2), soit par le cyclophosphamide seul (courbe 3), soit par la serpentine + cyclophosphamide (courbe 4) par voie intra- péritonéale et aux doses indiquées ci-dessus. […] Aucun de ces deux traitements ne permet d'obtenir une survie.définitive. Par contre, le mélange de serpentine et de cyclophosphamide permet d'obtenir une survie définitive."}, "virus de la grippe": {"tested_on": "virus de la grippe", "assay_type": "in vivo, souris SWISS", "conditions": "for survie (surviving mice/total): 200 µg i.p. twice a day, 8 days"}, "Ascite d'Ehrlich [4]": {"tested_on": "Ascite d'Ehrlich", "experiment": "Ehrlich ascites tumour in the mouse, serpentine, alstonine, cyclophosphamide", "assay_type": "in vivo, souris blanches Swiss", "conditions": "voie sous-cutanée, doses as above"}, "cellules saines": {"tested_on": "cellules saines", "experiment": "cell culture cytotoxicity, healthy cells as a group", "assay_type": "cell-based", "conditions": "200 Mg par ml de culture; au bout de huit jours d'observation; reins de singe, Vero, SIRC", "description": "as §1, §2"}, "cellules cancéreuses": {"tested_on": "cellules cancéreuses", "experiment": "cell culture cytotoxicity, cancer cells as a group", "assay_type": "cell-based", "conditions": "200 Mg par ml de culture; en 24 à 48 heures; K.B., Hela, Hep II, L", "description": "as §1, §2"}, "lymphome YC 8 [5]": {"tested_on": "lymphome YC 8", "experiment": "lymphoma YC 8 of the mouse, sempervirine", "assay_type": "in vivo, souris BALB c", "conditions": "for survie (surviving mice/total): 10 days from day 2", "source_text": "34 souris BALB c de 17-20 g sont inoculées par voie intra- péritonéale par […] ascitiques du lymphome YC 8 de la souris fraîchement prélevées et dix souris sont gardées comme témoins.\n24 souris sont traitées le deuxième jour après inoculation par la sempervirine dissoute en milieu tamponné (pH 7,65) à raison de deux fois par jour par voie intrapéritonéale (300 µ g par jour) et pendant 10 jours consécutifs.\nLes résultats sont présentés dans le tableau IX ci-après et illustrent la survie pendant trois mois des animaux traités. (Une survie de plusieurs jours n'est pas prise en considération)."}, "Ascite d'Ehrlich [6]": {"tested_on": "Ascite d'Ehrlich", "experiment": "Ehrlich ascites tumour in the mouse, sempervirine", "assay_type": "in vivo, souris BALB c", "conditions": "for survie (surviving mice/total): i.p. 300 µg par jour in two doses, 10 days from day 2", "source_text": "Les résultats sont présentés dans le tableau X ci-après et illustrent la survie des animaux pendant trois mois, une survie de plusieurs jours n'étant pas prise en considération."}, "virus de la vaccine": {"tested_on": "virus de la vaccine", "set-up": "species or system lapin", "conditions": "in vivo"}}, "note": "Like-named read-outs stand apart in the source and are kept apart here.", "data": [{"smiles": "COC(=O)C1=CO[C@@H](C)[C@@H]2Cn3ccc4c5ccccc5nc-4c3C[C@H]12", "note": "[alstonine]", "values": [{"measurement": "destruction des cellules", "setting": "[1]", "result": "Pas de destruction pendant 8 jours"}, {"measurement": "destruction des cellules", "setting": "Cellules K.B.", "result": "Destruction totale en 24-48 heures"}, {"measurement": "POIDS MOYEN (en grammes) DES TUMEURS, AU 16è JOUR", "setting": "tumeur MS 301", "result": "1,7 (compris entre 0,8 et 2,6) grammes"}, {"measurement": "survie (in words)", "setting": "lymphome YC 8 [2]; alstonine seule, same doses, voie sous-cutanée", "result": "ne survivent pas plus longtemps que les souris témoins"}, {"measurement": "survie (surviving mice/total)", "setting": "lymphome YC 8 [2]; day 0", "result": "10/10"}, {"measurement": "survie (surviving mice/total)", "setting": "lymphome YC 8 [2]; day 22", "result": "7/10"}, {"measurement": "survie (surviving mice/total)", "setting": "lymphome YC 8 [2]; day 60", "result": "4/10"}, {"measurement": "survie (surviving mice/total)", "setting": "lymphome YC 8 [2]; day 90", "result": "4/10"}, {"measurement": "definitive arrest of the Ehrlich ascites tumour (in words)", "setting": "Ascite d'Ehrlich [3]", "result": "ne peuvent définitivement arrêter la tumeur ascitique d'Ehrlich"}, {"measurement": "activity against influenza compared with sempervirine", "setting": "virus de la grippe; doses comparables", "result": "résultats tout à fait comparables"}, {"measurement": "survie and tumour evolution (in words)", "setting": "Ascite d'Ehrlich [4]", "result": "sans effet sur la survie définitive des souris"}]}, {"smiles": "O=P1(N(CCCl)CCCl)NCCCO1", "note": "(stereo not shown) [cyclophosphamide]", "values": [{"measurement": "outcome with cyclophosphamide alone (in words)", "setting": "lymphome YC 8 [2]; cyclophosphamide seul", "result": "après 1-3 mois, l'amaigrissement est tel qu'elles meurent"}, {"measurement": "amaigrissement of the treated mouse", "setting": "Ascite d'Ehrlich [3]; cyclophosphamide seul, i.p.", "result": "amaigrissement très fort"}, {"measurement": "survie (surviving mice/total)", "setting": "Ascite d'Ehrlich [3]; day 0", "result": "6/6"}, {"measurement": "survie (surviving mice/total)", "setting": "Ascite d'Ehrlich [3]; day 25", "result": "6/6"}, {"measurement": "survie (surviving mice/total)", "setting": "Ascite d'Ehrlich [3]; day 35", "result": "6/6"}, {"measurement": "survie (surviving mice/total)", "setting": "Ascite d'Ehrlich [3]; day 60", "result": "2/6"}, {"measurement": "survie (surviving mice/total)", "setting": "Ascite d'Ehrlich [3]; day 120", "result": "0/6"}, {"measurement": "definitive arrest of the Ehrlich ascites tumour (in words)", "setting": "Ascite d'Ehrlich [3]", "result": "ne peuvent définitivement arrêter la tumeur ascitique d'Ehrlich"}, {"measurement": "évolution de la tumeur d'Ehrlich (figure, weight of mice against days of treatment)", "setting": "Ascite d'Ehrlich [3]; voie intrapéritonéale, doses as above, curves 2, 3, 4", "result": "net ralentissement du poids des tumeurs"}]}, {"smiles": "c1ccc2c3ccn4cc5c(cc4c-3nc2c1)CCCC5", "note": "[sempervirine]", "values": [{"measurement": "destruction des cellules", "setting": "[1]", "result": "Pas de destruction pendant 8 jours"}, {"measurement": "destruction des cellules", "setting": "Cellules K.B.", "result": "Destruction totale en 24-48 heures"}, {"measurement": "destruction des cellules saines", "setting": "cellules saines", "result": "aucune destruction des cellules saines"}, {"measurement": "destruction des cellules cancéreuses", "setting": "cellules cancéreuses", "result": "toutes les cellules cancéreuses étaient détruites"}, {"measurement": "survie (surviving mice/total)", "setting": "lymphome YC 8 [5]; day 0, i.p. 300 µg par jour in two doses", "result": "24/24"}, {"measurement": "survie (surviving mice/total)", "setting": "lymphome YC 8 [5]; day 20, i.p. 300 µ g par jour in two doses", "result": "24/24"}, {"measurement": "survie (surviving mice/total)", "setting": "lymphome YC 8 [5]; day 60, i.p. 300 µg par jour in two doses", "result": "20/24"}, {"measurement": "survie (surviving mice/total)", "setting": "lymphome YC 8 [5]; day 90, i.p. 300 µg par jour in two doses", "result": "20/24"}, {"measurement": "state of the surviving mice", "setting": "lymphome YC 8 [5]; i.p. treated survivors, kept more than three months", "result": "tout à fait normales"}, {"measurement": "survie (in words)", "setting": "lymphome YC 8 [5]; voie sous-cutanée", "result": "ne survivent pas très longtemps après les souris témoins"}, {"measurement": "survie (surviving mice/total)", "setting": "Ascite d'Ehrlich [6]; day 0", "result": "20/20"}, {"measurement": "survie (surviving mice/total)", "setting": "Ascite d'Ehrlich [6]; day 21", "result": "15/20"}, {"measurement": "survie (surviving mice/total)", "setting": "Ascite d'Ehrlich [6]; day 60", "result": "10/20"}, {"measurement": "survie (surviving mice/total)", "setting": "Ascite d'Ehrlich [6]; day 90", "result": "10/20"}, {"measurement": "guérison définitive, proportion of mice", "setting": "Ascite d'Ehrlich [6]; sempervirine seule, same results in souris blanches SWISS", "result": "~50", "unit": "%"}, {"measurement": "appearance of papules", "setting": "virus de la vaccine", "result": "non apparition de papules ou apparition de papules dont la tailla est considérablement diminuée"}, {"measurement": "lung lobes affected by the virus (congestion)", "setting": "virus de la grippe; […], in controls half of the lobes affected", "result": "0 ou 1 lobe par poumon atteint"}, {"measurement": "survie (surviving mice/total)", "setting": "virus de la grippe; day 0, Groupe B: treated from inoculation", "result": "10/10"}, {"measurement": "survie (surviving mice/total)", "setting": "virus de la grippe; day 0, Groupe C: treated from 24 h after inoculation", "result": "10/10"}, {"measurement": "survie (surviving mice/total)", "setting": "virus de la grippe; day 10, Groupe B: treated from inoculation", "result": "10/10"}, {"measurement": "survie (surviving mice/total)", "setting": "virus de la grippe; day 10, Groupe C: treated from 24 h after inoculation", "result": "10/10"}, {"measurement": "survie (surviving mice/total)", "setting": "virus de la grippe; day 16, Groupe B: treated from inoculation", "result": "8/10"}, {"measurement": "survie (surviving mice/total)", "setting": "virus de la grippe; day 16, Groupe C: treated from 24 h after inoculation", "result": "6/10"}]}]}
